This is an account of results in patent US8835429B2, “Pyrimidine compounds, their use as mTOR kinase and Pl3 kinase inhibitors, and their syntheses” (Wyeth LLC, priority 2009, dated 2014).

In one assay the test system is MDA468. The assay is described as follows: In vitro cell growth assay (MTS), MDA468. Format: cell-based. As to conditions: 72 h, human breast line MDA468, three days after drug treatment, read-out: MDA IC50. On the procedure: (§1) The cell lines used were human prostate lines LNCap and PC3MM2, human breast lines MDA468 and MCF7, human renal line HTB44 (A498), human colon line HCT116, and human ovarian line OVCAR3. Cells were plated in 96-well culture plates. One day following plating, the inhibitors were added to cells. Three days after drug treatment, viable cell densities were determined by metabolic conversion (by viable cells) of the dye MTS, a well-established cell proliferation assay. The assays were performed using an assay kit purchased from Promega Corp. (Madison, Wis.) following the protocol supplied with the kit. The MTS assay results were read in a 96-well plate reader by measuring absorbance at 490 nm. The effect of each treatment was calculated as percent of control growth relative to the vehicle-treated cells grown in the same culture plate.

The subject of another assay is LNCap. The assay is described as follows: In vitro cell growth assay (MTS), LNCap. In kind it is cell-based. As to conditions: LNCaP, 72 h, human prostate line, three days after drug treatment. On the procedure:
as §1

Another assay addresses PI3K-alpha (Homo sapiens, UniProt P42336). Briefly: PI3K-alpha fluorescence polarization assay. Format: biochemical. The following applies: 20 μM PIP2, 25 μM ATP; read-out: PI3Kα IC50. On the procedure: The reaction buffer was 20 mM HEPES, pH 7.5, 2 mM MgCl2, 0.05% CHAPS; and 0.01% βME (added fresh). The stop/detection buffer was 100 mM HEPES, pH 7.5, 4 mM EDTA, 0.05% CHAPS; ATP 20 mM in water; PIP2 (diC8, Echelon, Salt Lake City Utah cat #P-4508) 1 mM in water (MW=856.5). The GST-GRP was 1.75 mg/mL or 1.4 mg/mL in 10% glycerol. The red detector (TAMRA) was 2.5 μM. Nunc 384-well black polypropylene fluorescent plates were used for PI3K assays.
The assay is run by placing 5 μL of diluted enzyme per well, then 5 μL of diluted compound (or 9.5 μL enzyme then 0.5 μL compound in DMSO) is added and mixed. Then, 10 μL substrate is added to start the reaction. The samples are incubated 30-60 minutes, then the reaction is stopped by adding 20 μL stop/detector mix. PI3K is diluted with reaction buffer (e.g., 5 μL or 7.5 μL PI3K into 620 μL reaction buffer), and 5 μL of diluted enzyme is used per well. A 5 μL portion of reaction buffer or of drug diluted in buffer (e.g., 4 μL/100 so final DMSO is 1% in reaction) is added to each. Pipetting up and down mixes the samples. Alternatively, the enzyme can be diluted to 1215 μL. In this case 9.8 μL is added per well and 0.2 μL compound is added in DMSO.
To prepare 1 mL of substrate solution, 955 μL reaction buffer, 40 μL PIP2, and 2.5 μL ATP are mixed. 10 μL of substrate is added to each well to start the reaction. […] The stop/detector mix is prepared by mixing 4 μL red detector and 1.6 μL or 2.0 μL GST-GRP with 1 mL stop buffer, which results in 10 nM probe and 70 nM GST-GRP. 20 μL of the stop/detector mix is added to each well to stop the reaction. The plates are read after 30-90 minutes keeping the red probe solutions dark. For the zero time point, stop/detector mix is added to the enzyme just before adding substrate. For an extra control, stop/detector mix is added to buffer (no enzyme) and substrate or to just buffer (no substrate). […] The recommended reaction has 0.06 μL per 20 μL (0.015 μg/20 μL) or 0.01125 μg/15 μL or 0.75 μg/mL.
Plates are read on machines with filters for TAMRA. The units are mP with no enzyme controls reading app 190-220 mP units. Fully active enzyme reduces fluorescence polarization down to 70-100 mP after 30 minutes. An active compound raises the mP values halfway to control or to 120-150 mP units.
(Fluorescence polarisation rises when a labelled molecule tumbles more slowly, as on binding a larger partner.)

In another assay the target is mTOR (Homo sapiens, UniProt P42345). The assay is described as follows: mTOR enzyme assay (DELFIA, purified FLAG-TOR, His6-S6K substrate). In kind it is biochemical. The arrangement: FLAG. The following applies: 100 μM ATP, 2 hours.
Sequence of mTOR (P42345 1360-2549 limits assumed): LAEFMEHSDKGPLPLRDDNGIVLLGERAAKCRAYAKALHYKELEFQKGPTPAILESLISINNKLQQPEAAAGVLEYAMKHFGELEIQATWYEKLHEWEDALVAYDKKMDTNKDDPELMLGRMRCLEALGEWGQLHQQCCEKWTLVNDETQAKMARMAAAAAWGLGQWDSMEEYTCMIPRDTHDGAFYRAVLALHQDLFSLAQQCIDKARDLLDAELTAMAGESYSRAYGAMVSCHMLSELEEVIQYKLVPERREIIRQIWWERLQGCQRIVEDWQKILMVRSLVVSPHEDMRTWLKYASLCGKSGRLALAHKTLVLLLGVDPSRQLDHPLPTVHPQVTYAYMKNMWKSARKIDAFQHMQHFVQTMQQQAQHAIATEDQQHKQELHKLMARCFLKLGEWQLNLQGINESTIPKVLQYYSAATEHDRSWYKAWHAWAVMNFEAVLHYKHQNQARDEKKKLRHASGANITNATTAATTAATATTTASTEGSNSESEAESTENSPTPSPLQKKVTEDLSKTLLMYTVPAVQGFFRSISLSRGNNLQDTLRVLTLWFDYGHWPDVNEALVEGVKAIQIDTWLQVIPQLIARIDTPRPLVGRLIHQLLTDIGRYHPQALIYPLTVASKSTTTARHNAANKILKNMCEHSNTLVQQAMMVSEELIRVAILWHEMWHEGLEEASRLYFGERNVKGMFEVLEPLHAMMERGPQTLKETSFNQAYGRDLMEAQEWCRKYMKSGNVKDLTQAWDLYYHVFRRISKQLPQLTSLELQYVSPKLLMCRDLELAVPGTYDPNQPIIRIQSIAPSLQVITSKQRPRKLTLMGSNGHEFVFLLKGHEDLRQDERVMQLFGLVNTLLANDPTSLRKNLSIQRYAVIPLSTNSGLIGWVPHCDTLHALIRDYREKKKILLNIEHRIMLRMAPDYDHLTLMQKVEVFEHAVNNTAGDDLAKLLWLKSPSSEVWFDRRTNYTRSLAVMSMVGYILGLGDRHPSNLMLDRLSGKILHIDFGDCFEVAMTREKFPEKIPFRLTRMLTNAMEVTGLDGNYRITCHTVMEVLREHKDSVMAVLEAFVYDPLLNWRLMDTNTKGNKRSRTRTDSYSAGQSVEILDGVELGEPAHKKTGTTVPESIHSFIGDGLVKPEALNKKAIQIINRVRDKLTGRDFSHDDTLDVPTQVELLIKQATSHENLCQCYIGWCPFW

Sequence of PI3K-alpha (P42336 whole entry, species assumed): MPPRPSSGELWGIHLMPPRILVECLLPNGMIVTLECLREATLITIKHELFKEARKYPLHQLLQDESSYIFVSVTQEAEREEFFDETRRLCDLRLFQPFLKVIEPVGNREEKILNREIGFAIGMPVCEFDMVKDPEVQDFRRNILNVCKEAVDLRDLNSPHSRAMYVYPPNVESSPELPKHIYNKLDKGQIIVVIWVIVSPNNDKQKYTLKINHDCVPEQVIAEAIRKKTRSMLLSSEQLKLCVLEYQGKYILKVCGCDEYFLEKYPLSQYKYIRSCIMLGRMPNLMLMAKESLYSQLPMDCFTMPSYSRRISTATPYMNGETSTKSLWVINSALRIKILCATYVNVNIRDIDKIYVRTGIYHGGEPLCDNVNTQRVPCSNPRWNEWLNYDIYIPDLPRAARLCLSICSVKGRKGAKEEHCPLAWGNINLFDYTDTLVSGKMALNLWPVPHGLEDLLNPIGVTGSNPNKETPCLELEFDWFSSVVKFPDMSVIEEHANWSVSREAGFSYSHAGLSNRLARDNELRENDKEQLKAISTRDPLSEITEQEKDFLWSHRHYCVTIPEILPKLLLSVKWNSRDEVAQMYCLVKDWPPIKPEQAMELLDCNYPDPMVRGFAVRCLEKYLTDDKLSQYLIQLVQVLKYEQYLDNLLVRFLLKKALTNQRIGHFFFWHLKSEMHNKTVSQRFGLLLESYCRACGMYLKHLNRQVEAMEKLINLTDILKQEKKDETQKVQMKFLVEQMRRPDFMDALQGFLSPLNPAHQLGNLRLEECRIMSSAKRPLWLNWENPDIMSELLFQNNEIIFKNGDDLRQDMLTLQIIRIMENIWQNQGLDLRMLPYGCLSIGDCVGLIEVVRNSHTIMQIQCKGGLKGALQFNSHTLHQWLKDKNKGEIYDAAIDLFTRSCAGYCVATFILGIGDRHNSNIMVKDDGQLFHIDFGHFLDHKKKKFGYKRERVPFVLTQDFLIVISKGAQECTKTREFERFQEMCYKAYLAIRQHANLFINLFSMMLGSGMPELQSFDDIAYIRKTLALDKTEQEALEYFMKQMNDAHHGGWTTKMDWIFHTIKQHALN
Sequence of PI3K-alpha (P27986 whole entry partner, species assumed): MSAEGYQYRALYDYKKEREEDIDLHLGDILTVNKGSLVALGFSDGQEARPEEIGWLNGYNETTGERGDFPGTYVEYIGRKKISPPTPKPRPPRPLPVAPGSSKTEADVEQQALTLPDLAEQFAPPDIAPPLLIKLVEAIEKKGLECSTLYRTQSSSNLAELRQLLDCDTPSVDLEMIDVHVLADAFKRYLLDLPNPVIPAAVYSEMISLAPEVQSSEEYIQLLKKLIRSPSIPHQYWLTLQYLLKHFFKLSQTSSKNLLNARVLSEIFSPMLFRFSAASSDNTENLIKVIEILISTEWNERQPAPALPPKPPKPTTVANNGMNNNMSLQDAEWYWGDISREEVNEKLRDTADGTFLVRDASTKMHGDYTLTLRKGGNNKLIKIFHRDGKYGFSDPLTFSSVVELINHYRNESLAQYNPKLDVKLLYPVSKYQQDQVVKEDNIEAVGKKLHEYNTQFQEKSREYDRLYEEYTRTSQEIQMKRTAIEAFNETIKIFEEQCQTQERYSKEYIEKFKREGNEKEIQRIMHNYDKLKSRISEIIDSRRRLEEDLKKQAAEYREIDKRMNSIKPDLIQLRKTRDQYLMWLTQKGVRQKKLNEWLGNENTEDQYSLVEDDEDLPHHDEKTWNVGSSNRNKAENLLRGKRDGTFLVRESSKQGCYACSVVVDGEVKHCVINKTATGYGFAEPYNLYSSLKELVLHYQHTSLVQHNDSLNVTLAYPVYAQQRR

Broadly, the IC50 is the point on the concentration scale where inhibition reaches its midpoint. For the compound `CC(C)Nc1cc(N2C3CCC2COC3)nc(-c2ccc(NC(=O)Nc3ccc(CN4CCN(C)CC4)cc3)cc2)n1` [1-{4-[4-(isopropylamino)-6-(3-oxa-8-azabicyclo[3.2.1]oct-8-yl)pyrimidin-2-yl]phenyl}-3-{4-[(4-methylpiperazin-1-yl)methyl]phenyl}urea], the IC50 came to 110 nM with MDA468, 70 nM with LNCap, 3410 nM on PI3K-alpha and 3.2 nM on mTOR.
For the compound `O=C(Nc1ccncc1)Nc1ccc(-c2nc(N3CC4CCC(C3)O4)cc(C(F)(F)F)n2)cc1` [1-{4-[4-(8-oxa-3-azabicyclo[3.2.1]oct-3-yl)-6-(trifluoromethyl)pyrimidin-2-yl]phenyl}-3-pyridin-4-ylurea], the IC50 amounted to 250 nM in the assay on MDA468, 50 nM in the assay with LNCap, 280 nM at PI3K-alpha and 2.45 nM against mTOR.
With `CN1CCN(Cc2ccc(NC(=O)Nc3ccc(-c4nc(CS(C)(=O)=O)cc(N5CC6CCC(C5)O6)n4)cc3)cc2)CC1` [1-{4-[(4-methylpiperazin-1-yl)methyl]phenyl}-3-(4-{4-[(methylsulfonyl)methyl]-6-(8-oxa-3-azabicyclo[3.2.1]oct-3-yl)pyrimidin-2-yl}phenyl)urea], the IC50 in the assay on MDA468 turned out to be 140 nM; in the assay on LNCap, 80 nM; on PI3K-alpha, 520 nM; at mTOR, 4.05 nM.
With `CNC(=O)Nc1ccc(-c2nc(N3CC4CCC(C3)O4)cc(C(F)(F)F)n2)cc1` [1-methyl-3-{4-[4-(8-oxa-3-azabicyclo[3.2.1]oct-3-yl)-6-(trifluoromethyl)pyrimidin-2-yl]phenyl}urea], the IC50 turned out to be 2100 nM with MDA468, 670 nM in the assay on LNCap, 1550 nM on PI3K-alpha and 11.5 nM against mTOR.
On to `CS(=O)(=O)Cc1cc(N2CC3CCC(C2)O3)nc(-c2ccc(NC(=O)Nc3ccccc3)cc2)n1` [1-(4-{4-[(methylsulfonyl)methyl]-6-(8-oxa-3-azabicyclo[3.2.1]oct-3-yl)pyrimidin-2-yl}phenyl)-3-phenylurea], for which the IC50 is 9 nM with MDA468, 0.9 nM in the assay on LNCap, 172 nM on PI3K-alpha and 3 nM on mTOR.
With `CN1CCN(c2ccc(NC(=O)Nc3ccc(-c4nc(N5CC6CCC(C5)O6)cc(C(F)(F)F)n4)cc3)cc2)CC1` [1-[4-(4-methylpiperazin-1-yl)phenyl]-3-{4-[4-(8-oxa-3-azabicyclo[3.2.1]oct-3-yl)-6-(trifluoromethyl)pyrimidin-2-yl]phenyl}urea], the IC50 stood at 190 nM with MDA468, 50 nM with LNCap, 440 nM at PI3K-alpha and 11 nM on mTOR.
As for `CC(C)Nc1cc(N2C3CCC2COC3)nc(-c2ccc(NC(=O)Nc3ccc(N4CCN(C)CC4)cc3)cc2)n1` [1-{4-[4-(isopropylamino)-6-(3-oxa-8-azabicyclo[3.2.1]oct-8-yl)pyrimidin-2-yl]phenyl}-3-[4-(4-methylpiperazin-1-yl)phenyl]urea], the IC50 in the assay on MDA468 came to 34 nM; with LNCap it was 19 nM; on PI3K-alpha, 2000 nM; at mTOR, 2.7 nM.
Take `CN(C)CCOc1ccc(NC(=O)Nc2ccc(-c3nc(N4C5CCC4COC5)cc(N4C5CCC4COC5)n3)cc2)cc1` [1-{4-[2-(dimethylamino)ethoxy]phenyl}-3-[4-(4,6-di-3-oxa-8-azabicyclo[3.2.1]oct-8-ylpyrimidin-2-yl)phenyl]urea]: the IC50 worked out at 9 nM in the assay on MDA468, 4 nM with LNCap, 1540 nM at PI3K-alpha and 2.5 nM on mTOR.
Regarding `O=C(Nc1ccc(-c2nc(-c3ccccc3)cc(N3CC4CCC(C3)O4)n2)cc1)NC1CC1` [1-cyclopropyl-3-{4-[4-(8-oxa-3-azabicyclo[3.2.1]oct-3-yl)-6-phenylpyrimidin-2-yl]phenyl}urea], the IC50 worked out at 5000 nM in the assay on MDA468, 1000 nM in the assay with LNCap, 3680 nM at PI3K-alpha and 19.5 nM against mTOR.
